Results published in patent publication US20240398817A1, “CARDIO- AND RENOSAFE ANTIDIABETIC THERAPY” (priority 2018, published 2024).
“Also recorded” adds a separate entry of the source.

System: patients with type 2 diabetes at high vascular risk
Assay: Cardiovascular and Renal Outcomes Trial: linagliptin 5 mg once daily vs placebo on top of standard of care
Type: in vivo
Settings: for Albuminuria progression: patients, %: of 2162 analysed; for Hospitalisation for heart failure vs placebo, in words: subgroup without insulin use at baseline
Description: The effect of linagliptin on cardiovascular risk in adult patients with type 2 diabetes mellitus and with increased CV risk evidenced by a history of established macrovascular or renal disease (e.g. as defined herein) was evaluated in a multi-center, multi-national, randomized, double-blind parallel group trial. The trial compared the risk of experiencing a major adverse cardiovascular event (MACE) between linagliptin and placebo when these were added to and used concomitantly with standard of care treatments for diabetes (HbA1c), cardiovascular risk factors and renal disease.
The primary endpoint in this trial was the time to first occurrence of three point (3P) MACE. A major adverse cardiac event was defined as a cardiovascular death or a nonfatal myocardial infarction (MI) or a nonfatal stroke. The statistical analysis plan tested for non-inferiority for the occurrence of (3P) MACE. […] The secondary endpoint was a renal composite, defined as renal death or sustained end stage renal disease or sustained decrease of 40% or more in eGFR.
Type 2 diabetes patient with insufficient glycemic control (naïve or pre-treated with any antidiabetic background medication, excluding treatment with GLP-1 receptor agonists, DPP-4inhibitors or SGLT-2 inhibitors if ≥consecutive 7 days, e.g. having HbA1c 6.5-10%), and high risk of cardiovascular events, e.g. defined by: • albuminuria (micro or macro) and previous macrovascular disease: e.g. defined according to Condition I as indicated below; • and/or • impaired renal function: e.g. as defined according to Condition II as indicated below;
Background and aims: People with type 2 diabetes (T2D) are at increased risk for hospitalization for heart failure (hHF), particularly in the setting of concomitant cardiovascular (CV) and/or kidney disease. […] Here we present analyses of HF outcomes with the DPP-4 inhibitor linagliptin (LINA) vs. placebo (PBO) from a Cardiovascular and Renal Outcomes Trial assessing cardiovascular safety and renal microvascular outcome in patients with type 2 diabetes at high vascular risk, a large CV outcomes trial that enrolled participants with T2D at high risk for hHF due to concomitant CV and/or chronic kidney disease. Materials and methods: People with T2D and concomitant CV and/or kidney disease were randomized to receive LINA 5 mg, or PBO once daily (1:1), on top of standard of care. All hHF, CV outcomes, and deaths were centrally adjudicated, with individual and composite HF-related outcomes analyses comparing LINA vs. placebo. Investigator-reported HF-related adverse events, whether or not confirmed by adjudication, were also analyzed. A Cox proportional hazards model adjusting for region and history of HF was used for analyses of first events. Recurrent hHF events were analyzed using a negative binomial model.
Methods: The present Cardiovascular and Renal Outcomes Trial randomized people with T2D and i) concomitant CV disease with UACR >30 mg/g or ii) prevalent CKD (i.e. GFR <45 ml/min/1.73m2 and/or UACR >200 mg/g) to receive the DPP-4 inhibitor linagliptin (5 mg) or placebo once daily in a double-blind fashion. The primary CV endpoint was 3P-MACE, with a key secondary kidney endpoint (adjudicated ESKD, renal death, or sustained ≥40% decrease in eGFR from baseline) and other renal outcomes (including albuminuria and eGFR slope) also assessed. Subgroups were assessed by baseline kidney function (eGFR ≥/<45 ml/min/1.73m2and eGFR ≥/<30, 45 or 60 ml/min/1.73m2).
Adults with type 2 diabetes, HbA1c 6.5-10.0% inclusive, and high CV risk were eligible for inclusion. […] Macrovascular disease eligibility criteria was based on documented and confirmed history of myocardial infarction, coronary artery disease, stroke, carotid artery disease, or peripheral artery disease. Participants with end-stage kidney disease (ESKD), defined as eGFR <15 or requiring maintenance dialysis, were excluded.

## CC#CCn1c(N2CCC[C@@H](N)C2)nc2c1c(=O)n(Cc1nc(C)c3ccccc3n1)c(=O)n2C [Linagliptin, 1-[(4-methyl-quinazolin-2-yl)methyl]-3-methyl-7-(2-butyn-1-yl)-8-(3-(R)-amino-piperidin-1-yl)-xanthine]
In vivo
  Hospitalization for unstable angina: rate/1000 patient-years: 5.5 per 1000 patient years
  Hypersensitivity reactions, all AEs: %: 3.3%
  Hypersensitivity reactions, all AEs: N: 114
  Investigator reported HF events: HR vs placebo: 0.87
  Investigator reported HF events: events: 243
  Investigator reported hypoglycemia: %: 29.7%
  Investigator reported hypoglycemia: N: 1036
  New initiation of loop diuretics or hHF: HR vs placebo: 0.95
  New initiation of loop diuretics or hHF: participants: 330/2530
  New introduction of loop diuretics: HR vs placebo: 0.94
  New introduction of loop diuretics: participants: 318/2530
  Non-cardiovascular death: %: (3.2) %
  Non-cardiovascular death: hazard ratio vs placebo: 1.02
  Non-cardiovascular death: no.: 112
  Non-cardiovascular death: rate/1000 patient-years: 14.3 per 1000 patient years
  Non-fatal myocardial infarction: %: (4.5) %
  Non-fatal myocardial infarction: hazard ratio vs placebo: 1.15
  Non-fatal myocardial infarction: no.: 156
  Non-fatal myocardial infarction: rate/1000 patient-years: 20.6 per 1000 patient years
  Non-fatal stroke: %: (1.9) %
  Non-fatal stroke: hazard ratio vs placebo: 0.88
  Non-fatal stroke: no.: 65
  Non-fatal stroke: rate/1000 patient-years: 8.5 per 1000 patient years
  Pancreatic cancer: %: 0.3%
  Pancreatic cancer: N: 11
  Participants with ≥2 hHF events: %: 1.7%
  Participants with ≥2 hHF events: n: 60
  Pemphigoid (bullous pemphigoid): %: 0.2%
  Pemphigoid (bullous pemphigoid): N: 7
  Reduction of risk of albuminuria progression compared to placebo: about 14%
  Reduction of risk of microvascular renal and/or eye complications compared to placebo: about 14%
  Renal death, sustained ESKD, or sustained decrease of 50% or more in eGFR from baseline: hazard ratio vs placebo: 0.98
  Risk of HHF regardless of baseline renal function, in words: did not affect the risk of HHF
  Risk of albuminuria progression vs placebo, in words: significantly reduced
  Risk of hospitalization for heart failure, in words: no increase in the risk
  Serious adverse events: %: 37.0%
  Serious adverse events: N: 1293
  Skin lesions: %: 0.1%
  Skin lesions: N: 5
  Stent thrombosis, hospitalisation for peripheral vascularisation, retinopathy-related endpoints vs placebo, in words: no significant difference
  Sustained decrease of 30% or more in eGFR with eGFR <60; and renal death, sustained ESRD or CV death vs placebo, in words: no significant difference
  Time to first event of investigator reported events or adjudicated hHF: HR vs placebo: 0.92
  Time to first event of investigator reported events or adjudicated hHF: events: 305
  eGFR changes over time and transition in CKD status vs placebo, in words: no clinically meaningful differences
  eGFR slope (MDRD): between-group difference vs placebo, estimate ± SE: −0.175 ± 0.151 /year
  eGFR-slope, in words: unaffected
  hHF or all-cause mortality: HR vs placebo: 0.95
  hHF or all-cause mortality: events: 499
In vivo, listed as linagliptin
  4-point MACE: %: 13.3%
  Acute pancreatitis, adjudication confirmed: N: 9
  Albuminuria progression: hazard ratio (95% CI) vs placebo: 0.86
  Albuminuria progression: rate/100 patient-years: 21.4 per 100 patient-years
  Hospitalization for heart failure or cardiovascular death: %: 11.6%
  Skin lesions: %: 0.2%
Median follow up 2.2 years
  Risk of major adverse cardiovascular events (3P-MACE) vs placebo, in words: non-inferior to placebo
  Risk of renal outcome events vs placebo, in words: did not increase the risk
Median follow up 2.2 years, listed as linagliptin
  Risk of major adverse cardiovascular events (3P-MACE) vs placebo, in words: did not increase the risk
N = 3494
  Any adverse events: N: 2697
N = 6740 both groups
  eGFR slope (MDRD) from baseline to last value on treatment/year, estimate ± SE: −2.459 ± 0.106 /year
Negative binomial model
  hHF events (first+recurrent): rate ratio vs placebo: 0.94
  Albuminuria progression: patients, %: (35.3) %
Listed as linagliptin
  Albuminuria progression: patients, %: 35.3%
  Hospitalisation for heart failure vs placebo, in words: favouring linagliptin in patients without insulin; also recorded: Statistically significant lower risk of hHF
Of n = 3494
  Contributing to composite microvascular outcome: patients with albuminuria progression, %: 21.3%
Patients analysed 2162 (n = 4291 both groups)
  Albuminuria progression: number of patients: 763
Patients taking sulfonylurea at baseline
  Rate of hypoglycemia compared to placebo, in words: numerically higher rate
Patients using insulin at baseline
  Incidence of severe hypoglycaemia: 4.4%
Patients using sulfonylurea at baseline
  Incidence of severe hypoglycaemia: 2.0%
Patients without insulin use at baseline
  Time to onset of intensification or initiation of insulin vs placebo, in words: later
Recurrent events analysis
  Cumulative number of hHF events (first+recurrent): 326
Study end
  Patients who achieved glycaemic control at the end of the study irrespective of antidiabetic medication: %: 29.0%
  Patients who achieved glycaemic control at the end of the study irrespective of antidiabetic medication: n: 1012
Study end visit
  Proportion achieving glycaemic control at study end without additional or increased antidiabetic medication vs placebo, in words: significantly greater
Subgroup baseline SBP <140 mmHg
  Risk of hHF vs placebo, in words: statistically lower risk of hHF
Subgroup enrolled from North America or Asia, listed as LINA
  Risk of hHF vs placebo, in words: nominally significant reductions
Subgroup enrolled from North America or Asia, listed as linagliptin
  Risk of hHF vs placebo, in words: Statistically significant lower risk of hHF
Listed as LINA
  Hospitalisation for heart failure vs placebo, in words: nominally significant reduction
Tertiary endpoints
  4P-MACE, CV death, all-cause mortality, and MI-related endpoints vs placebo, in words: no significant differences
  Fatal and non-fatal stroke and transient ischaemic attack vs placebo, in words: no significant differences
  hHF; CV death or hHF; all-cause mortality or hHF; heart failure AEs vs placebo, in words: no significant differences
Treated population
  Severe hypoglycemic event (requiring assistance): %: 3.0%
  Severe hypoglycemic event (requiring assistance): N: 106
Up to Week 132
  UACR vs placebo, in words: statistically significant and clinically meaningful reduction
Week 36
  UACR: difference at week 36 (gMean ratio of relative change for linagliptin versus placebo): 0.87
Week 84
  UACR: difference at week 84 (gMean ratio of relative change for linagliptin versus placebo): 0.88
